Values of other authors as cited in patent publication US8047146B2, “Subsurface soil injection apparatus and method” (priority 2001, dated 2011).
Converted amounts (≈) assume the structure as drawn.

Columns and labels:
[1] = rapidly photodegrades in light

SMILES: CI [Iodomethane, iodomethane]
- solubility in water: 14.2 mg/mL (≈ 100 mM)
- lifetime in the atmosphere [1]: 1.5 to 4 days
